Reference: US4217345A, “3-0-(β-D-Glucuronopyranosyl)-soyasapogenol B” (Otsuka Pharmaceutical Co., Ltd., priority 1978, dated 1980)
Where “and” joins values, the source holds several entries; their conditions need not be identical. Equal values may be shown once.

How the values were obtained:
mice = test: Acute toxicity (LD50) in mice; assay type: in vivo; details: intraperitoneal administration
Method: (§1) The actute toxicity (LD50 mg/kg) of the test compounds was determined on mice by intraperitoneal administration in the case of Compound A and intravenous administration in the case of Compound B.

[1] = tested on: Nephrotoxin-Type Nephritis; test: Therapeutic effect on nephrotoxin-type nephritis: proteinuria level; assay type: in vivo, male Wistar rats; details: for Proteinuria Level, Average: 3 mg/body i.p. for seven days; for Proteinuria Level: 3 mg/body i.p. once every 24 hours for seven days, individual rat, listed as Compound of Invention
Method: Rat nephrotoxin ("NT" for brevity) was obtained as described below.
Rat kidney cortex was homogenized with an equal quantity of physiological saline. The homogenized mixture was mixed with Freund's complete adjuvant (a product of Difco Company) in a volume ratio of 1:1. 2 ml of the resulting mixture was intramuscularly injected into a rabbit (body weight 3,100 g) to immunize the rabbit. A month and a half later, blood was taken from the heart of the rabbit and serum was obtained. The resulting serum was inactivated at 56° C. for 30 minutes, then salted out with a 40% saturated aqueous solution of ammonium sulfate, and fractionated. The γ-globulin (IgG) fraction was collected to obtain NT.
The therapeutic evaluation was carried out using male Wistar rats with a body weight of 150 to 160 g with three replications for each test compound. The test compound was intraperitoneally administered once every 24 hours for seven days. One hour after the administration of the test compound on the third day, the NT was applied. The NT was intravenously injected in an amount of 1 ml at a tail vein of each rat. Physiological saline solution was used as a control.
The proteinuria level (total amount excreted into the urine over a 24 hour period) was measured using turbidometry employing bovine serum albumin as a control by means of sulfosalicylic acid.

Heymann-Type Nephritis = test: Therapeutic effects on Heymann-type nephritis: proteinuria level; assay type: in vivo, Male Wistar rats; details: for Proteinuria Level: individual rat, listed as Compound of Invention
Method: Male Wistar rats with a body weight of 180 to 200 g were used in the test. Rat kidney cortex was extracted, and homogenized with an equal quantity by volume of a physiological saline solution. The homogenate was centrifuged at 1,500 G for 1 hour. The supernatant liquid was purified in accordance with the method of T. S. Edgington et al., Journal of Experimental Medicine, 127, 555 (1968), and mixed with Freund's complete adjuvant 37 Ra (a product of Difco Company) in a volume ratio of 0.4:1. The resulting mixture was injected intraperitoneally into isologous rats in an amount of 0.5 ml per rat. And then the same amount of its mixture was administered every 2 weeks until the proteinuria level exceeded 100 mg/day. (This period was about 6 to 8 weeks.)
Each of the test compounds was intraperitoneally administered to the rats affected with Heymann-type nephritis (with a body weight of 300 to 350 g) once a day for 7 days, and then the amount of proteinuria (mg/day) was measured in the same manner as described above. Physiological saline solution was used as a control.

complement = test: Anticomplementary activity: inhibition of hemolysis of sensitized erythrocytes (EA); assay type: biochemical, guinea pig; details: for Anticomplementary Activity (50% hemolysis inhibitory activity value): guinea pig complement serum diluted 150 times, 60 minutes
Method: The anticomplementary activity of the test compounds above was measured and confirmed by the testing method described in Meneki Kagaku (Immuno-Chemistry), Yuichi Yamamura et al., Ed. Asakura Shoten, Tokyo, Japan (1973) pages 830-834. Specifically, a test tube was charged with 0.5 ml of an aqueous dispersion of each of the test compounds, 0.5 ml of sensitized erythrocytes (EA) containing 1×10^8 cells/ml, 1 ml of a 5-fold diluted solution of a Veronal buffer solution containing isotonic gelatin (This 5-fold diluted solution is termed GVB^++ for brevity), and 0.5 ml of complement serum (guinea pig complement) diluted 150 times with the GVB^++. The mixture was maintained for 60 minutes. Then, 5 ml of an ice-fold physiological saline solution was added thereto and the mixture was centrifuged.

plasmin = details: cited from earlier work
thrombin = details: cited from earlier work
[2] = Acute toxicity (LD50) in mice; assay type: in vivo; details: mouse, in vivo, intravenous administration
Method: as §1

complements = details: cited from earlier work
urokinase = details: cited from earlier work
Kallikrein = details: cited from earlier work
[3] = tested on: hereditary angioneurotic edema; details: known complement inhibitors; cited from earlier work

Question: What does the source list for `CC1(C)C[C@@H](O)[C@]2(C)CC[C@]3(C)C(=CC[C@@H]4[C@@]5(C)CC[C@H](O[C@@H]6O[C@H](C(=O)O)[C@@H](O)[C@H](O)[C@H]6O)[C@@](C)(CO)[C@@H]5CC[C@]43C)[C@@H]2C1` [Compound A, 3-O-(β-D-glucuronopyranosyl)-soyasapogenol B]?
Answer: Acute Toxicity LD50 (mice): Above 300 mg/kg; Proteinuria Level, Average ([1]; Day 1, average of 3 rats (control 15)): 3.2 mg/day; Proteinuria Level ([1]; Day 1): 1.9 mg/day and 5.3 mg/day and 2.5 mg/day; Proteinuria Level, Average ([1]; Day 4, average of 3 rats (control 20)): 2.3 mg/day; Proteinuria Level ([1]; Day 4): 1.2 mg/day and 2.9 mg/day and 2.7 mg/day; Proteinuria Level, Average ([1]; Day 7, average of 3 rats (control 23)): 1.3 mg/day; Proteinuria Level ([1]; Day 7): 0.9 mg/day and 1.8 mg/day and 1.1 mg/day; Proteinuria Level, Average ([1]; Day 10, average of 3 rats (control 33)): 9.7 mg/day; Proteinuria Level ([1]; Day 10): 7 mg/day and 13 mg/day and 9 mg/day; Proteinuria Level, Average (Heymann-Type Nephritis; Before Administration, 3 mg/body i.p. group, average of 3 rats (control 129)): 123 mg/day; Proteinuria Level (Heymann-Type Nephritis; Before Administration, 3 mg/body i.p. group): 117 mg/day and 129 mg/day and 123 mg/day; Proteinuria Level, Average (Heymann-Type Nephritis; Day 1, 3 mg/body i.p. once a day for 7 days, average of 3 rats (control 116)): 112 mg/day; Proteinuria Level (Heymann-Type Nephritis; Day 1, 3 mg/body i.p. once a day for 7 days): 89 mg/day and 127 mg/day and 119 mg/day; Proteinuria Level, Average (Heymann-Type Nephritis; Day 4, 3 mg/body i.p. once a day for 7 days, average of 3 rats (control 131)): 58 mg/day; Proteinuria Level (Heymann-Type Nephritis; Day 4, 3 mg/body i.p. once a day for 7 days): 42 mg/day and 75 mg/day and 58 mg/day; Proteinuria Level, Average (Heymann-Type Nephritis; Day 7, 3 mg/body i.p. once a day for 7 days, average of 3 rats (control 122)): 28 mg/day; Proteinuria Level (Heymann-Type Nephritis; Day 7, 3 mg/body i.p. once a day for 7 days): 27 mg/day and 39 mg/day and 18 mg/day; Proteinuria Level, Average (Heymann-Type Nephritis; Day 14, 3 mg/body i.p. once a day for 7 days, average of 3 rats (control 119)): 3 mg/day; Proteinuria Level (Heymann-Type Nephritis; Day 14, 3 mg/body i.p. once a day for 7 days): 3 mg/day and 17 mg/day and 9 mg/day; Proteinuria Level, Average (Heymann-Type Nephritis; Day 21, 3 mg/body i.p. once a day for 7 days, average of 3 rats (control 109)): 9 mg/day; Proteinuria Level (Heymann-Type Nephritis; Day 21, 3 mg/body i.p. once a day for 7 days): 8 mg/day and 13 mg/day and 7 mg/day; anticomplementary activity (in words) (complement): potent anticomplementary activity; Anticomplementary Activity (50% hemolysis inhibitory activity value) (complement): 5 µg/mL

Question: What does the source list for `CC1(C)[C@@H](O[C@H]2O[C@H](C(=O)O)[C@@H](O)[C@H](O)[C@H]2O[C@@H]2O[C@H](C(=O)O)[C@@H](O)[C@H](O)[C@H]2O)CC[C@]2(C)[C@H]3C(=O)C=C4[C@@H]5C[C@@](C)(C(=O)O)CC[C@]5(C)CC[C@@]4(C)[C@]3(C)CC[C@@H]12` [Compound B, Glycyrrhizin]?
Answer: inhibitory activity against plasmin (plasmin): inhibitory activity; inhibitory activity against thrombin (thrombin): inhibitory activity; LD50 [2]: > 300 mg/kg; inhibitory activity against complements (complements): inhibitory activity; inhibitory activity against urokinase (urokinase): inhibitory activity; inhibitory activity against Kallikrein (Kallikrein): inhibitory activity; Anticomplementary Activity (50% hemolysis inhibitory activity value) (complement): 500-1,000 γ/ml

Question: With `Cc1ccc(C(=O)Nc2ccc(S(=O)(=O)O)c3cc(S(=O)(=O)O)cc(S(=O)(=O)O)c23)cc1NC(=O)c1cccc(NC(=O)Nc2cccc(C(=O)Nc3cc(C(=O)Nc4ccc(S(=O)(=O)O)c5cc(S(=O)(=O)O)cc(S(=O)(=O)O)c45)ccc3C)c2)c1` [Suramin Sodium] as the molecule, how does the “use in the treatment of hereditary angioneurotic edema” value (“use in the treatment” below) [3] read?
Answer: used with success

Question: With `NCCCCCC(=O)O` [epsilon-aminocaproic acid] as the molecule, how does the “use in the treatment” value [3] read?
Answer: used with success

Question: With `NC[C@H]1CC[C@H](C(=O)O)CC1` [tranexamic acid] as the molecule, how does the “use in the treatment” value [3] read?
Answer: used with success
